Measurements taken from patent US9790233B2, “Compositions and methods of modulating 15-PGDH activity” (CASE WESTERN RESERVE UNIVERSITY, priority 2012, dated 2017).
Where two headings read alike, the source gives them in different places.

Columns and labels:
Type in all cases: cell-based
[1] = system: 15-PGDH luciferase fusion construct in Vaco503 reporter cell line; assay: 15-PGDH-luciferase fusion gene reporter induction, V503 cells
[2] = system: 15-PGDH luciferase fusion construct in V9m reporter cell line; assay: 15-PGDH-luciferase fusion gene reporter induction, V9m cells
[3] = system: 15-PGDH luciferase fusion construct in LS174T reporter cell line; assay: 15-PGDH-luciferase fusion gene reporter induction, LS174T cells; conditions: Homo sapiens
[4] = read-out: V503-3H9-7 reporter activity, % ([…]), V503 reporter cells, […] compound, % induction of luciferase activity over basal level, read-out: V503-3H9-7 reporter activity, % (2.5 μM)
[5] = read-out: V503-3H9-7 reporter activity, % ([…]), V503 reporter cells, […] compound, % induction of luciferase activity over basal level, read-out: V503-3H9-7 reporter activity, % (7.5 μM)
[6] = read-out: V9M-SC3 Reporter activity ([…]) (%), V9m reporter cells, […] compound, % induction of luciferase activity over basal level, read-out: V9M-SC3 Reporter activity (2.5 μM) (%)
[7] = read-out: V9M-SC3 Reporter activity ([…]), %, V9m reporter cells, […] compound, % induction of luciferase activity over basal level, read-out: V9M-SC3 Reporter activity (7.5 μM), %
[8] = read-out: Ls174T-SC1 reporter activity, % ([…]), LS174T reporter cells, […] compound, % induction of luciferase activity over basal level, read-out: Ls174T-SC1 reporter activity, % (2.5 μM)
[9] = read-out: Ls174T-SC1 reporter activity, % ([…]), LS174T reporter cells, […] compound, % induction of luciferase activity over basal level, read-out: Ls174T-SC1 reporter activity, % (7.5 μM)
[10] = read-out: V503 reporter activity ([…]), […], % increased luciferase activity over basal level, read-out: V503 reporter activity (2.5 uM)
[11] = read-out: V503 reporter activity ([…]), […], % increased luciferase activity over basal level, read-out: V503 reporter activity (7.5 uM)
[12] = read-out: V9M reporter activity ([…]), […], % increased luciferase activity over basal level, 100 = doubling, read-out: V9M reporter activity (2.5 uM)
[13] = read-out: V9M reporter activity ([…]), […], % increased luciferase activity over basal level, 100 = doubling, read-out: V9M reporter activity (7.5 uM)
[14] = read-out: LS174T reporter activity ([…]), […], % increased luciferase activity over basal level, read-out: LS174T reporter activity (2.5 uM)
[15] = read-out: LS174T reporter activity ([…]), […], % increased luciferase activity over basal level, read-out: LS174T reporter activity (7.5 uM)

Row | Structure (SMILES) | activation at […] [1, 4] [%] | activation at […] [1, 5] [%] | activation at […] [2, 6] [%] | activation at […] [2, 7] [%] | activation at […] [3, 8] [%] | activation at […] [3, 9] [%] | activation at […] [1, 10] [%] | activation at […] [1, 11] [%] | activation at […] [2, 12] [%] | activation at […] [2, 13] [%] | activation at […] [3, 14] [%] | activation at […] [3, 15] [%]
1 | COc1ccc(OC)c(N(CC(=O)Nc2cc(C)cnc2Cl)S(=O)(=O)c2ccccc2)c1 [SW202972] | 39.4 | 100 | -15.4 | 0.14 | -17.4 | 16.6 | – | – | – | – | – | –
2 | COc1ccc(OC)c(N(CC(=O)Nc2cccnc2Cl)S(=O)(=O)c2ccccc2)c1 [SW202973] | 41.5 | 107 | -15.6 | 5.61 | -16.4 | 19.3 | – | – | – | – | – | –
3 | COc1ccc(OC)c(N(CC(=O)Nc2cncc(C)c2)S(=O)(=O)c2ccccc2)c1 [SW202974] | 59.9 | 179 | -9.04 | 35.9 | -8.77 | 34.8 | – | – | – | – | – | –
4 | COc1ccc(OC)c(N(CC(=O)Nc2ccccc2C)S(=O)(=O)c2ccccc2)c1 [SW202975] | 47.4 | 116 | -26.6 | -8.97 | -7.32 | 17.2 | – | – | – | – | – | –
5 | COc1cccc(NC(=O)CN(c2cc(OC)ccc2OC)S(=O)(=O)c2ccccc2)c1 [SW202976] | 36.8 | 138 | -18.5 | 9.6 | -9.97 | 30.1 | – | – | – | – | – | –
6 | COc1ccc(OC)c(N(CC(=O)OC2CCCCC2)S(=O)(=O)c2ccccc2)c1 [SW202978] | 46.8 | 116 | -13.8 | -0.07 | -10.1 | 20.4 | – | – | – | – | – | –
7 | COc1ccc(OC)c(N(CC(=O)OC(C)(C)C)S(=O)(=O)c2ccccc2)c1 [SW202979] | 41.6 | 133 | -14.4 | 10.8 | -8.92 | 17.8 | – | – | – | – | – | –
8 | COC(=O)CN(c1cc(OC)ccc1OC)S(=O)(=O)c1ccccc1 [SW202980] | 11.4 | 50.6 | -27.6 | -13.4 | -7.34 | 5.17 | – | – | – | – | – | –
9 | COc1ccc(OC)c(N(CC(=O)Nc2cccc(Cl)c2)S(=O)(=O)c2ccccc2)c1 [SW202985] | 79.6 | 150 | -27.3 | -21.9 | -4.89 | 26.3 | – | – | – | – | – | –
10 | CCCOC(=O)CN(c1cc(OC)ccc1OC)S(=O)(=O)c1ccccc1 [SW202986] | 60.2 | 175 | -22.9 | -9.6 | 0.21 | 33.8 | – | – | – | – | – | –
11 | COc1ccc(OC)c(N(CC(=O)Nc2ccccc2Cl)S(=O)(=O)c2ccccc2)c1 [SW202987] | 70.1 | 145 | -22 | -21 | -8.3 | 20.6 | – | – | – | – | – | –
12 | COc1ccc(OC)c(N(C(C)C(=O)Nc2cccnc2)S(=O)(=O)c2ccccc2)c1 (stereo not drawn) [SW202991] | -6.08 | 8.9 | -25 | -7.5 | -15.6 | 2.09 | – | – | – | – | – | –
13 | COc1ccc(OC)c(N(CC(=O)Nc2cccnn2)S(=O)(=O)c2ccccc2)c1 [SW203680] | 10.4 | 33 | 14 | 25.2 | 11.7 | 46 | – | – | – | – | – | –
14 | COc1ccc(OC)c(N(CC(=O)Nc2cnccn2)S(=O)(=O)c2ccccc2)c1 [SW203681] | 90.4 | 72.4 | 18 | 122 | 121 | 152 | – | – | – | – | – | –
15 | CNC(=O)CN(c1cc(OC)ccc1OC)S(=O)(=O)c1ccccc1 [SW203682] | -32.2 | 79.2 | 15.3 | 22.4 | 187 | 13.8 | – | – | – | – | – | –
16 | COc1ccc(OC)c(N(CC(=O)Nc2cccnc2)S(=O)(=O)c2cccc(C)c2)c1 [SW203684] | 81.2 | 52.5 | 50.7 | 74.9 | 170 | 119 | – | – | – | – | – | –
17 | COc1ccc(OC)c(N(CC(=O)N(C)c2cccnc2)S(=O)(=O)c2ccccc2)c1 [SW203686] | -11 | 65.6 | 15.1 | 30.3 | 116 | 28.5 | – | – | – | – | – | –
18 | COc1ccc(OC)c(N(CC(=O)Nc2ccccc2)S(=O)(=O)c2ccccc2)c1 [SW203687] | 45.7 | -41.6 | 28.2 | 47.5 | 1.75 | 56 | – | – | – | – | – | –
19 | COc1ccc(OC)c(CN(CC(=O)Nc2cccnc2)S(=O)(=O)c2ccccc2)c1 [SW203688] | -28.1 | -99.5 | 12.1 | 6.04 | 12.6 | 14.8 | – | – | – | – | – | –
20 | CCCCC(=O)c1sc2nc(-c3cccs3)cc(-c3ccccc3)c2c1N [SW206976, 1-(3-amino-4-phenyl-6-(thiophen-2-yl)thieno[2,3-b]pyridin-2-yl)pentan-1-one] | – | – | – | – | – | – | 16.8 | 49.5 | 11.8 | 17.5 | 42.4 | 20.6
21 | CCCNC(=O)c1sc2nc(-c3cccs3)cc(-c3ccccc3)c2c1N [SW206977, 3-amino-4-phenyl-N-propyl-6-(thiophen-2-yl)thieno[2,3-b]pyridine-2-carboxamide] | – | – | – | – | – | – | 33 | 37.6 | 3.5 | 0.45 | 34.9 | 29.4
22 | CCOC(=O)c1sc2nc(-c3cccs3)cc(-c3ccccc3)c2c1N [SW206978, Ethyl 3-amino-4-phenyl-6-(thiophen-2-yl)thieno[2,3-b]pyridine-2-carboxylate] | – | – | – | – | – | – | 38.8 | 35.8 | 7.51 | 8.02 | 31.4 | 26.2
23 | COc1ccc(OC)c(N(CC(=O)N2CCCCCC2)S(=O)(=O)c2ccccc2)c1 [SW208000] | 122 | 138 | 33.5 | 36.6 | 42 | 70.5 | – | – | – | – | – | –
24 | COc1ccc(OC)c(N(CC(=O)N2CCCC2)S(=O)(=O)c2ccccc2)c1 [SW208001] | -4.07 | 6.68 | 19.6 | 23.3 | -0.61 | 1.87 | – | – | – | – | – | –
25 | COc1ccc(OC)c(N(CC(=O)N2CCCC2=O)S(=O)(=O)c2ccccc2)c1 [SW208002] | -15.7 | -16.5 | -12.4 | -21.8 | -14.5 | -14.6 | – | – | – | – | – | –
26 | COc1ccc(OC)c(N(CC(=O)N2CCc3ccccc32)S(=O)(=O)c2ccccc2)c1 [SW208003] | 117 | 75.9 | 13.3 | -11.5 | 37 | 45.6 | – | – | – | – | – | –
27 | COc1ccc(OC)c(N(CC(=O)Nc2ccncc2F)S(=O)(=O)c2ccccc2)c1 [SW208004] | 147 | 177 | 43.7 | 76.1 | 62.2 | 118 | – | – | – | – | – | –
28 | COc1ccc(OC)c(N(CC(=O)Nc2ccnc(F)c2)S(=O)(=O)c2ccccc2)c1 [SW208005] | 103 | 61.2 | 42.4 | 19.8 | 63.9 | 53.9 | – | – | – | – | – | –
29 | COc1ccc(OC)c(N(CC(=O)N2CCCc3ccccc32)S(=O)(=O)c2ccccc2)c1 [SW208006] | 89.7 | 43.9 | 34.9 | 0.15 | 38.2 | 42.2 | – | – | – | – | – | –
30 | COc1ccc(S(=O)(=O)N(CC(=O)Nc2cccnc2)c2cc(C(F)(F)F)ccc2C(F)(F)F)cc1 [SW208008] | 31.9 | 39.6 | -5.96 | -0.92 | -2.16 | 10 | – | – | – | – | – | –
